The text below walks through data of ChEMBL document CHEMBL3045705, “Thermal, kinetic, spectroscopic studies and anti-microbial, anti-tuberculosis, anti-oxidant properties of clioquinol and benzo-coumarin derivatives mixed complexes with copper ion” (2013).

Converted amounts (≈) assume the structure as drawn. Some results are limits rather than exact numbers.

Format in all cases: functional
The subject of test [1] is Mycobacterium tuberculosis. Briefly: Growth inhibition of Mycobacterium tuberculosis H37Rv MTCC 200 at MIC after 28 days by micro dilution anti-microbial susceptibility test.
A further test deals with Aspergillus niger. Briefly: Antifungal activity against Aspergillus niger ATCC 64958 after 16 to 18 hr by Kirby-Bauer disc diffusion method.
The subject of test [2] is Mycobacterium tuberculosis. The test is described as follows: Antitubercular activity against Mycobacterium tuberculosis H37Rv MTCC 200 after 28 days by micro dilution anti-microbial susceptibility test. Particulars: H37Rv MTCC 200, 672 h.
The subject of a further test is Candida albicans. Briefly: Antifungal activity against Candida albicans ATCC 66027 after 16 to 18 hr by Kirby-Bauer disk diffusion method. A general note: In agar diffusion tests the substance spreads into inoculated agar from a disc or well.
Another test deals with Bacillus subtilis. The test is described as follows: Antibacterial activity against Bacillus subtilis ATCC 11774 after 16 to 18 hr by Kirby-Bauer disk diffusion method.
Another test concerns Streptococcus pyogenes. The test is described as follows: Antibacterial activity against Streptococcus pyogenes ATCC 12384 after 16 to 18 hr by Kirby-Bauer disc diffusion method.
Another test relates to Pseudomonas aeruginosa. Briefly: Antibacterial activity against Pseudomonas aeruginosa ATCC 25619 after 16 to 18 hr by Kirby-Bauer disc diffusion method.
The test system of another test is Escherichia coli. The test is described as follows: Antibacterial activity against Escherichia coli ATCC 25922 after 16 to 18 hr by Kirby-Bauer disc diffusion method.

On to `O=C(/C=C/c1cccc(O)c1)c1cc2c(ccc3ccccc32)oc1=O`, for which the “growth inhibition (GI)” value in test [1] stood at 23%. In addition, the MIC with Aspergillus niger was 200 µg/mL (≈ 584 µM); in test [2], 100 µg/mL (≈ 292 µM); in the test with Candida albicans, 200 µg/mL (≈ 584 µM); against Bacillus subtilis, 600 µg/mL (≈ 1750 µM); with Streptococcus pyogenes it was 200 µg/mL (≈ 584 µM); in the test on Pseudomonas aeruginosa, 200 µg/mL (≈ 584 µM). Also, the MIC in the test with Escherichia coli was 400 µg/mL (≈ 1170 µM).
Consider `O=C(/C=C/c1ccc(O)cc1)c1cc2c(ccc3ccccc32)oc1=O`, for which the “growth inhibition (GI)” value in test [1] amounted to 46%. For the same compound, the minimum inhibitory concentration (MIC) with Aspergillus niger was 400 µg/mL (≈ 1170 µM); in test [2], 50 µg/mL (≈ 146 µM); in the test on Candida albicans, 200 µg/mL (≈ 584 µM); in the test with Bacillus subtilis it was 400 µg/mL (≈ 1170 µM); with Streptococcus pyogenes, 400 µg/mL (≈ 1170 µM); against Pseudomonas aeruginosa it was 200 µg/mL (≈ 584 µM). This compound returned an MIC with Escherichia coli of 200 µg/mL (≈ 584 µM).
As for `O=C(/C=C/c1ccc([N+](=O)[O-])cc1)c1cc2c(ccc3ccccc32)oc1=O`, the “growth inhibition (GI)” value in test [1] was 54%. Besides, the MIC in the test with Aspergillus niger turned out to be 200 µg/mL (≈ 539 µM); in test [2] it was 50 µg/mL (≈ 135 µM); against Candida albicans it was 200 µg/mL (≈ 539 µM); with Bacillus subtilis, 200 µg/mL (≈ 539 µM); in the test on Streptococcus pyogenes, 100 µg/mL (≈ 269 µM); in the test on Pseudomonas aeruginosa it was 200 µg/mL (≈ 539 µM). This compound registered an MIC against Escherichia coli of 100 µg/mL (≈ 269 µM).
Regarding `CCn1cc(C(=O)O)c(=O)c2cc(F)c(N3CCNCC3)cc21` [NORFLOXACIN], the minimal inhibitory concentration (MIC) against Bacillus subtilis, with Streptococcus pyogenes, in the test with Pseudomonas aeruginosa and in the test with Escherichia coli was 10 µg/mL (≈ 31.3 µM) throughout.
In the case of `O=C(O)c1cn(C2CC2)c2cc(N3CCNCC3)c(F)cc2c1=O` [CIPROFLOXACIN], the MIC came to 5 µg/mL (≈ 15.1 µM) in the test on Bacillus subtilis, 20 µg/mL (≈ 60.4 µM) in the test with Streptococcus pyogenes, 10 µg/mL (≈ 30.2 µM) in the test on Pseudomonas aeruginosa and 20 µg/mL (≈ 60.4 µM) against Escherichia coli.
Take `O=C(/C=C/c1ccc(Cl)cc1)c1cc2c(ccc3ccccc32)oc1=O`: in test [1], the “growth inhibition (GI)” value was 88%. In addition, the MIC against Aspergillus niger turned out to be 200 µg/mL (≈ 554 µM); in test [2], 12.5 µg/mL (≈ 34.6 µM); in the test on Candida albicans, 200 µg/mL (≈ 554 µM); in the test with Bacillus subtilis, 200 µg/mL (≈ 554 µM); in the test with Streptococcus pyogenes, 100 µg/mL (≈ 277 µM); in the test with Pseudomonas aeruginosa, 100 µg/mL (≈ 277 µM). The MIC with Escherichia coli came to 100 µg/mL (≈ 277 µM).
Take `CC[C@@H](CO)NCCN[C@@H](CC)CO` [ETHAMBUTOL]: the “growth inhibition (GI)” value in test [1] was 99%. In test [2], 3.12 µg/mL (≈ 15.3 µM) was the least that counted as inhibitory (MIC).
The like results for `CN[C@@H]1[C@H](O[C@H]2[C@H](O[C@H]3[C@H](O)[C@@H](O)[C@H](N=C(N)N)[C@@H](O)[C@@H]3N=C(N)N)O[C@@H](C)[C@]2(O)C=O)O[C@@H](CO)[C@H](O)[C@H]1O` [STREPTOMYCIN] were, in that order, 98% and 6.25 µg/mL (≈ 10.7 µM).
In the case of `OC(Cn1cncn1)(Cn1cncn1)c1ccc(F)cc1F` [FLUCONAZOLE], the MIC against Aspergillus niger and in the test with Candida albicans was 10 µg/mL (≈ 32.7 µM) in each case.
NYSTATIN: the MIC against Aspergillus niger and in the test on Candida albicans was 100 µg/mL in each case.
As for `O=C(/C=C/c1ccccc1[N+](=O)[O-])c1cc2c(ccc3ccccc32)oc1=O`, the “growth inhibition (GI)” value in test [1] turned out to be 37%. The MIC was 200 µg/mL (≈ 539 µM) in the test on Aspergillus niger; 50 µg/mL (≈ 135 µM) in test [2]; 400 µg/mL (≈ 1080 µM) in the test on Candida albicans; 400 µg/mL (≈ 1080 µM) with Bacillus subtilis; 200 µg/mL (≈ 539 µM) in the test on Streptococcus pyogenes; 400 µg/mL (≈ 1080 µM) against Pseudomonas aeruginosa. In addition, the MIC against Escherichia coli worked out at 200 µg/mL (≈ 539 µM).
Turning to `O=C(/C=C/c1ccccc1)c1cc2c(ccc3ccccc32)oc1=O`, the “growth inhibition (GI)” value in test [1] was found to be 18%. For the same compound, the MIC against Aspergillus niger was 200 µg/mL (≈ 613 µM); in test [2] it was 100 µg/mL (≈ 306 µM); against Candida albicans, 400 µg/mL (≈ 1230 µM); against Bacillus subtilis, over 600 µg/mL; in the test on Streptococcus pyogenes, 400 µg/mL (≈ 1230 µM); in the test with Pseudomonas aeruginosa, 400 µg/mL (≈ 1230 µM). The compound also had an MIC in the test on Escherichia coli of 400 µg/mL (≈ 1230 µM).
Take `CC1(C)S[C@@H]2[C@H](NC(=O)[C@H](N)c3ccccc3)C(=O)N2[C@H]1C(=O)O` [AMPICILLIN]: the MIC in the test with Bacillus subtilis, with Streptococcus pyogenes, against Pseudomonas aeruginosa and against Escherichia coli was 100 µg/mL (≈ 286 µM) each time.
As for `NNC(=O)c1ccncc1` [ISONIAZID], the “growth inhibition (GI)” value in test [1] is given as 99%. The same compound came in with an MIC in test [2] of 0.25 µg/mL (≈ 1.82 µM).

A word on the MIC: it is the smallest concentration in the dilution series that meets the test's criterion for growth inhibition.
